Data on 37 molecules can be found in patent US6133291A, “N-(imidazolylalkyl)substituted cyclic amines as histamine-H3 agonists or antagonists” (Schering Corporation, priority 1998, dated 2000).

SMILES strings stand for the structures.

For one assay, the target named is T1, H3 receptors (Cavia porcellus, UniProt Q9JI35). In words: pA2 at H3 receptor (guinea pig neuronal ileum contraction assay). The format is biochemical.
T1 sequence (Q9JI35 whole entry): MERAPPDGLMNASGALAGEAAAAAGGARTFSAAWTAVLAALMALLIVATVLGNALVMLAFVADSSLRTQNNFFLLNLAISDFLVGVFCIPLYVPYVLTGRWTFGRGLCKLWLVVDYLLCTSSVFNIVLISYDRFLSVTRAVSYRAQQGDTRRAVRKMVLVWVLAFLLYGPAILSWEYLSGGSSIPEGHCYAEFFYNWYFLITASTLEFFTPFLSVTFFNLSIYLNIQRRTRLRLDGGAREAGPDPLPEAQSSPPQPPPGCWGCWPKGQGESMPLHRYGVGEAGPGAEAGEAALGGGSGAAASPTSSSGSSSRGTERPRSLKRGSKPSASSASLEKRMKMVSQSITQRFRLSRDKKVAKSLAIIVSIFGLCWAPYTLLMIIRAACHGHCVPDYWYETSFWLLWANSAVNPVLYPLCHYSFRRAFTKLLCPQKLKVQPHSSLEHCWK
Details: not given
From the text:
pA2=-logEC50, as defined by J. Hey, Eur. J. Pharmacol., (1995), Vol. 294, 329.
As to `Fc1ccc(C2=CCN(CCCCc3c[nH]cn3)CC2)cc1` [compound 31], the Kb was 12.6 nM.

With `OC1(c2ccc(Cl)cc2)CCN(CCCc2c[nH]cn2)CC1` [compound 25], the Kb was 12.6 nM. Molecule `OC1(c2ccc(Cl)cc2)CCN(CCCCCc2c[nH]cn2)CC1` [compound 27] gave a Kb of 7.94 nM. Still for that read-out and setting: with `OC1(c2ccc(Cl)cc2)CCN(CCCCc2c[nH]cn2)CC1` [compound 26] the figure was 10 nM.

Still in this assay, the particulars now being: HCl salt; pA2=-logEC50 as defined by J. Hey.
As for `OCCN1CCC(CCCC2CCN(CCCCc3c[nH]cn3)CC2)CC1` [compound 30], the pA2 amounted to 7.7.

Turning to `OCCN1CCC(CCCC2CCN(CCCc3c[nH]cn3)CC2)CC1` [compound 29], the pA2 is given as 7.1.

The same assay, now with this note: HCl salt; pA2=-logEC50 as defined by J. Hey; read-out: pA2 (converted).
For the molecule `CCCCOc1ccc(NC(=O)C2CCN(CCCc3c[nH]cn3)CC2)cc1` [compound 14], the Kb is 1 nM. In the case of `O=C(c1ccc(F)cc1)C1CCN(CCCCc2c[nH]cn2)CC1` [compound 33], the Kb was 6.31 nM.

As to `O=C(c1ccc(F)cc1)C1CCN(CCCc2c[nH]cn2)CC1` [compound 32], the Kb was 20 nM.

With `CCCN(CC1CCN(CCCCc2c[nH]cn2)CC1)S(=O)(=O)c1ccc(OC(F)(F)F)cc1` [compound 6], the Kb was 316 nM. Same read-out and setting: the result for `O=C(NCc1ccc(OC(F)(F)F)cc1)C1CCN(CCCc2c[nH]cn2)CC1` [compound 13] reads 31.6 nM.

As for `O=C(Nc1cccc(C(F)(F)F)c1)C1CCN(CCCCc2c[nH]cn2)CC1` [No. 10], the Kb is 0.794 nM. Still for that read-out and setting: with `O=C(Nc1ccc(OC(F)(F)F)cc1)C1CCN(CCCCc2c[nH]cn2)CC1` [No. 2] the figure was 0.501 nM.

For `O=C(NCc1ccc(Cl)cc1)C1CCN(CCCc2c[nH]cn2)CC1` [No. 12], the Kb was 10 nM. As for `c1nc(CCCCN2CCC(N3CCCCC3)CC2)c[nH]1` [compound 24], the Kb is 631 nM.

As for `FC(F)(F)Oc1ccc(CNC2CCN(CCCCc3c[nH]cn3)CC2)cc1` [compound 21], the Kb was 7.94 nM.

Turning to `O=C(Nc1cccc(Cl)c1)C1CCN(CCCCc2c[nH]cn2)CC1` [compound 9], the Kb was 1.26 nM.

On to `O=C(Nc1ccc(Cl)c(Cl)c1)C1CCN(CCCCc2c[nH]cn2)CC1` [No. 8], for which the Kb is 158 nM.

Consider `CC1(C(=O)Nc2ccc(OC(F)(F)F)cc2)CCN(CCCCc2c[nH]cn2)CC1` [No. 19], for which the Kb was 39.8 nM.

In the case of `Fc1ccc(OCC2CCN(CCCCc3c[nH]cn3)CC2)cc1` [compound 34], the Kb is 20 nM. For `O=C(Nc1cccc(OC(F)(F)F)c1)C1CCN(CCCc2c[nH]cn2)CC1` [compound 11], the Kb is 0.631 nM.

The subject of the next assay is rat.
Assay: not given
The settings on record: cited from earlier work.
Turning to `S=C(NC1CCCCC1)N1CCC(c2cnc[nH]2)CC1` [thioperamide], the reversal learning entry is “improve short-term memory and reversal learning”; the short-term memory entry is recorded as “improve short-term memory”.

The test system of another assay is mice.
Assay: not given
The settings on record: electrically induced convulsions; cited from earlier work.
For `S=C(NC1CCCCC1)N1CCC(c2cnc[nH]2)CC1` [thioperamide], the “duration of each phase of convulsion” value was “decreased the duration of each phase of convulsion” and the electroconvulsive threshold entry was “raised the electroconvulsive threshold”.

The next assay deals with histamine-H3 receptor.
Assay: not given
To be noted: cited from earlier work.
`N=C(N)SCCCc1c[nH]cn1` [S-[3-(4(5)-imidazolyl)propyl]isothiourea]: the H3 agonist/antagonist activity result is given as “histamine-H3 antagonist”.

For a further assay, the target named is T1, H3 receptors. The experiment in a line: H3-Receptor Binding Assay (guinea pig brain membranes, [3H]R-α-methylhistamine or [3H]Nα-methylhistamine).
Details: not given
For the molecule `CCCCOc1ccc(NC(=O)C2CCN(CCCc3c[nH]cn3)CC2)cc1` [compound 14], the affinity corresponds to a Ki of 10 nM.

Turning to `Fc1ccc(C2=CCN(CCCCc3c[nH]cn3)CC2)cc1` [compound 31], the affinity corresponds to a Ki of 14 nM. Same read-out and setting: the result for `O=C(NC1CCN(CCCc2c[nH]cn2)CC1)c1ccc(F)cc1` [No. 18] reads 52 nM; that for `O=C(c1ccc(F)cc1)C1CCN(CCCCc2c[nH]cn2)CC1` [compound 33], 3 nM; that for `O=C(c1ccc(F)cc1)C1CCN(CCCc2c[nH]cn2)CC1` [compound 32], 6 nM. On the same count and under the same terms, with `CCCNCC1CCN(CCCCc2c[nH]cn2)CC1` [No. 4] the figure was 200 nM. In turn, `CCCN(CC1CCN(CCCCc2c[nH]cn2)CC1)S(=O)(=O)c1ccc(OC(F)(F)F)cc1` [compound 6] displayed a Ki of 24 nM. The molecule `CCC(=O)C1(c2ccccc2)CCN(CCCc2c[nH]cn2)CC1` [compound 35] registered a Ki of 500 nM. Same read-out and setting: with `O=C(NCc1ccc(OC(F)(F)F)cc1)C1CCN(CCCc2c[nH]cn2)CC1` [compound 13] the figure was 24 nM; with `O=C(Nc1cccc(C(F)(F)F)c1)C1CCN(CCCCc2c[nH]cn2)CC1` [No. 10], 9 nM.

Regarding `FC(F)(F)Oc1ccc(NCC2CCN(CCCCc3c[nH]cn3)CC2)cc1` [compound 22], the Ki worked out at 9 nM. Same read-out and setting: with `CCCN(CC1CCN(CCCCc2c[nH]cn2)CC1)S(=O)(=O)c1ccc(Cl)cc1` [compound 5] the figure was 44 nM; with `O=C(Nc1ccc(OC(F)(F)F)cc1)C1CCN(CCCCc2c[nH]cn2)CC1` [No. 2], 2 nM; with `O=C(NCc1ccc(Cl)cc1)C1CCN(CCCc2c[nH]cn2)CC1` [No. 12], 29 nM. Same read-out and setting: the result for `O=C(NC1CCN(CCCc2c[nH]cn2)CC1)c1ccc(OC(F)(F)F)cc1` [No. 17] reads 23 nM; that for `c1nc(CCCCN2CCC(N3CCCCC3)CC2)c[nH]1` [compound 24], 100 nM. `O=C(Nc1ccc(O)cc1)C1CCN(CCCc2c[nH]cn2)CC1` [compound 15] gave a Ki of 100 nM. On the same count and under the same terms, the result for `FC(F)(F)Oc1ccc(CNC2CCN(CCCCc3c[nH]cn3)CC2)cc1` [compound 21] reads 13 nM. Still for that read-out and setting: with `OC1(c2ccc(Cl)cc2)CCN(CCCc2c[nH]cn2)CC1` [compound 25] the figure was 6 nM; with `O=C(Nc1cccc(Cl)c1)C1CCN(CCCCc2c[nH]cn2)CC1` [compound 9], 5.5 nM. The same measure, in the same setting: the result for `OC1(Cc2ccccc2)CCN(CCCc2c[nH]cn2)CC1` [compound 36] reads 660 nM; that for `CCCNC(=O)C1CCN(CCCCc2c[nH]cn2)CC1` [compound 3], 53 nM. `CCOC(=O)C1CCN(CCCCc2c[nH]cn2)CC1` [compound 1] registered a Ki of 22 nM. The molecule `OC1(c2cccc(C(F)(F)F)c2)CCN(CCCCc2c[nH]cn2)CC1` [compound 28] returned a Ki of 60 nM. Still for that read-out and setting: with `OC1(c2ccc(Cl)cc2)CCN(CCCCCc2c[nH]cn2)CC1` [compound 27] the figure was 5 nM; with `O=C(Nc1cccc(O)c1)C1CCN(CCCc2c[nH]cn2)CC1` [compound 16], 700 nM. Still for that read-out and setting: with `CC1(C(=O)Nc2ccc(OC(F)(F)F)cc2)CCCN(CCCCc2c[nH]cn2)C1` (stereo not shown) [No. 20] the figure was 170 nM. The same measure, in the same setting: the result for `O=C(Nc1ccc(Cl)c(Cl)c1)C1CCN(CCCCc2c[nH]cn2)CC1` [No. 8] reads 27 nM. Molecule `CC1(C(=O)Nc2ccc(OC(F)(F)F)cc2)CCN(CCCCc2c[nH]cn2)CC1` [No. 19] showed a Ki of 180 nM.

Molecule `Fc1ccc(OCC2CCN(CCCCc3c[nH]cn3)CC2)cc1` [compound 34] gave a Ki of 10 nM. Same read-out and setting: with `O=C(Nc1ccc(Cl)cc1)C1CCN(CCCCc2c[nH]cn2)CC1` [No. 7] the figure was 35 nM; with `O=C(Nc1cccc(OC(F)(F)F)c1)C1CCN(CCCc2c[nH]cn2)CC1` [compound 11], 1 nM. On the same count and under the same terms, the result for `OC1(c2ccc(Cl)cc2)CCN(CCCCc2c[nH]cn2)CC1` [compound 26] reads 6 nM.

Still in this assay, the particulars now being: HCl salt; guinea pig brain membranes, pH 7.5, 30° C., 30 min.
Turning to `OCCN1CCC(CCCC2CCN(CCCCc3c[nH]cn3)CC2)CC1` [compound 30], the Ki was found to be 7 nM. The same measure, in the same setting: the result for `OCCN1CCC(CCCC2CCN(CCCc3c[nH]cn3)CC2)CC1` [compound 29] reads 12 nM.
